Molecular target: T1, human S1P1 receptor (Homo sapiens, UniProt P21453)
T1 construct: expressed in transfected cells; membranes used
Test: GTP γ35S binding assay for S1P1 activity
Type: biochemical
Settings: membranes of cells stably expressing S1P1 receptor, 30 min at 25° C.
Description: Compounds were synthesized and tested for S1P1 activity using the GTP γ^35S binding assay. These compounds may be assessed for their ability to activate or block activation of the human S1P1 receptor in cells stably expressing the S1P1 receptor.
GTP γ^35S binding was measured in the medium containing (mM) HEPES 25, pH 7.4, MgCl2 10, NaCl 100, dithitothreitol 0.5, digitonin 0.003%, 0.2 nM GTP γ^35S, and 5 μg membrane protein in a volume of 150 μl. Test compounds were included in the concentration range from 0.08 to 5,000 nM unless indicated otherwise. Membranes were incubated with 100 μM 5′-adenylylimmidodiphosphate for 30 min, and subsequently with 10 μM GDP for 10 min on ice. Drug solutions and membrane were mixed, and then reactions were initiated by adding GTP γ^35S and continued for 30 min at 25° C. Reaction mixtures were filtered over Whatman GF/B filters under vacuum, and washed three times with 3 mL of ice-cold buffer (HEPES 25, pH7.4, MgCl2 10 and NaCl 100). Filters were dried and mixed with scintillant, and counted for ^35S activity using a β-counter. Agonist-induced GTP γ^35S binding was obtained by subtracting that in the absence of agonist. Binding data were analyzed using a non-linear regression method. In case of antagonist assay, the reaction mixture contained 10 nM S1P in the presence of test antagonist at concentrations ranging from 0.08 to 5000 nM.

T1 sequence (P21453 whole entry): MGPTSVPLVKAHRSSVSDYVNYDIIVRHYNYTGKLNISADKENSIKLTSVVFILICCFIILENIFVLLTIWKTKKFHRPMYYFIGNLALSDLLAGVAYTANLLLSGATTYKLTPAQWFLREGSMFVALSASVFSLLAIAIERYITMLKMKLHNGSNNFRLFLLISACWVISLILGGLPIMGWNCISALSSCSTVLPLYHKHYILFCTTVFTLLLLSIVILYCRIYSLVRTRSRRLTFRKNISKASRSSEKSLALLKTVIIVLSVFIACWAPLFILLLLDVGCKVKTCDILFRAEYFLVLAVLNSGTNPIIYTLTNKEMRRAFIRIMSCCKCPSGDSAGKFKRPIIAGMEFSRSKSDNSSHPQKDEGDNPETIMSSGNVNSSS

| EC50 [nM] | Structure (SMILES) |
| --- | --- |
| 13 | O=C(O)C1CN(Cc2ccc(OCCCCCc3ccccc3)c(C3=CCCC3)c2)C1 [Compound 15, 1-{3-cyclopent-1-en-1-yl-4-[(5-phenylpentyl)oxy]benzyl}azetidine-3-carboxylic acid] |
| 15 | O=C(O)C1CN(Cc2ccc(OCCCCCc3ccccc3)c(-c3cccs3)c2)C1 [Compound 16, 1-{4-[(5-phenylpentyl)oxy]-3-(2-thienyl)benzyl}azetidine-3-carboxylic acid] |
| 22 | O=C(O)C1CN(Cc2ccc(OCCCCCc3ccccc3)c(-n3cccn3)c2)C1 [Compound 25, 1-{4-[(5-phenylpentyl)oxy]-3-(1H-pyrazol-1-yl)benzyl}azetidine-3-carboxylic acid] |
| 182 | O=C(O)C1CN(Cc2ccc(SCCCCCc3ccccc3)c(-c3cccs3)c2)C1 [Compound 26, 1-{4-[(5-phenylpentyl)thio]-3-(2-thienyl)benzyl}azetidine-3-carboxylic acid] |
| 15 | O=C(O)C1CC(NCc2ccc(OCCCCCc3ccccc3)c(-c3cccs3)c2)C1 (stereo not drawn) [Compound 28, 3-({4-[(5-phenylpentyl)oxy]-3-(2-thienyl)benzyl}amino)cyclobutanecarboxylic acid] |

System: female C57BL6 mice
Test: Lymphopenia assay in mice
Type: in vivo
Settings: after 5 hours, 10 mg/Kg subcutaneously, FIG. 1
Description: Test drugs are prepared in a solution containing 3% (w/v) 2-hydroxy propyl β-cyclodextrin (HPBCD) and 1% DMSO to a final concentration of 1 mg/ml, and subcutaneously injected to female C57BL6 mice (CHARLES RIVERS) weighing 20-25 g at the dose of 10 mg/Kg. Blood samples are obtained by puncturing the submandibular skin with a Goldenrod animal lancet at 5, 24, 48, 72, and 96 hrs post drug application. Blood is collected into microvettes (SARSTEDT) containing EDTA tripotassium salt. Lymphocytes in blood samples are counted using a HEMAVET Multispecies Hematology System, HEMAVET HV950FS (Drew Scientific Inc.). (Hale, J. et al Bioorg. & Med. Chem. Lett. 14 (2004) 3351).
A lymphopenia assay in mice; as previously described, was employed to measure the in vivo blood lymphocyte depletion after dosing with 1-{4-[(5-phenylpentyl)oxy]-3-(2-thienyl)benzyl}azetidine-3-carboxylic acid. This S1P1 agonist is useful for S1P-related diseases and exemplified by the lymphopenia in vivo response. […] Lymphocytes in blood samples were counted using a HEMAVET Multispecies Hematology System, HEMAVET HV950FS (Drew Scientific Inc.). […]

| Structure (SMILES) | lymphocyte count (number of lymphocytes 10^3/μL blood) |
| --- | --- |
| O=C(O)C1CN(Cc2ccc(OCCCCCc3ccccc3)c(-c3cccs3)c2)C1 [Compound 16, 1-{4-[(5-phenylpentyl)oxy]-3-(2-thienyl)benzyl}azetidine-3-carboxylic acid] | < 1 10^3/μL blood |
